Data from patent US20080021030A1, “Substituted Pyrazoles As Ppar Agonists” (priority 2003, published 2008).

Tests used:
Experiment in all cases: Transient transfection (transactivation) assay in CV-1 cells, GAL4-PPAR LBD chimera, SPAP reporter
Type in all cases: cell-based
[1] = biological target: T1, hPPAR alpha (Homo sapiens, UniProt Q07869); settings: read-out: EC50 μM HPPARα
T1 construct: expressed in transfected cells; host or cells: CV-1 cells
T1 sequence (Q07869 239-466 limits assumed): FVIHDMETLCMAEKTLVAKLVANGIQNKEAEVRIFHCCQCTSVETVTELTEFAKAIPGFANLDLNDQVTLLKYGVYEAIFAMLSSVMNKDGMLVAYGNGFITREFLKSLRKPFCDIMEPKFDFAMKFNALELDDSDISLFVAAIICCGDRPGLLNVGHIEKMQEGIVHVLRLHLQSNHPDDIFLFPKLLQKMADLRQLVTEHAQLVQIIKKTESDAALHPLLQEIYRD
From the text: (§1) Compounds were screened for functional potency in transient transfection assays in CV-1 cells for their ability to activate the PPAR subtypes (transactivation assay). A previously established chimeric receptor system was utilized to allow comparison of the relative transcriptional activity of the receptor subtypes on the same target gene and to prevent endogenous receptor activation from complicating the interpretation of results. See, for example, Lehmann, J. M.; Moore, L. B.; Smith-Oliver, T. A.; Wilkison, W. O.; Willson, T. M.; Kliewer, S. A., An antidiabetic thiazolidinedione is a high affinity ligand for peroxisome proliferator-activated receptor gamma (PPARgamma), J. Biol. Chem., 270, 12953-6 (1995). The ligand binding domains for murine and human PPAR alpha, PPAR gamma, and PPAR delta were each fused to the yeast transcription factor GAL4 DNA binding domain. CV-1 cells were transiently transfected with expression vectors for the respective PPAR chimera along with a reporter construct containing five copies of the GAL4 DNA binding site driving expression of secreted placental alkaline phosphatase (SPAP) and beta-galactosidase. After 16 h, the medium was exchanged to DME medium supplemented with 10% delipidated fetal calf serum and the test compound at the appropriate concentration. After an additional 24 h, cell extracts were prepared and assayed for alkaline phosphatase and β-galactosidase activity. Alkaline phosphatase activity was corrected for transfection efficiency using the beta-galactosidase activity as an internal standard (see, for example, Kliewer, S. A., et. al. Cell 83, 813-819 (1995)). Rosiglitazone (BRL 49653) was used as a positive control in the hPPAR gamma assay. The positive control in the hPPAR alpha assays was 2-4-[2-(3-[4-fluorophenyl]-1-heptylureido)ethyl]-phenoxy-(2-methyl propionic acid (WO 97/36579). The positive control for PPAR delta assays was 2-{2-methyl-4-[({4-methyl-2-{trifluoromethyl)phenyl]-1,3-thiazol-5-yl}methyl)sulfanyl]phenoxy}acetic acid (WO 01/00603). The positive control was (5-{4-[2-(Methyl-pyridin-2-yl-amino)-ethoxy]-benzyl}-thiazolidine-2,4-dione (J. Med. Chem. 1994, 37(23), 3977), for PPAR gamma.
(§2) Activities in three hPPAR subtypes are reported in the table and are expressed in micromolar.

[2] = biological target: T2, hPPAR delta (Homo sapiens, UniProt Q03181); settings: read-out: EC50 μM HPPARδ
T2 construct: expressed in transfected cells; host or cells: CV-1 cells
T2 sequence (Q03181 211-439 limits assumed): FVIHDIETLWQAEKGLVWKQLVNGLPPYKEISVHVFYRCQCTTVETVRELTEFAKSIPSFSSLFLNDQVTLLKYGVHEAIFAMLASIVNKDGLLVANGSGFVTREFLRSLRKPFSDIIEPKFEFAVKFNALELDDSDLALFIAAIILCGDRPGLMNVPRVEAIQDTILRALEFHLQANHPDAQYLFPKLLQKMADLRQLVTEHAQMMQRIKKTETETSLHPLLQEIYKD
From the text: as §1, §2

[3] = biological target: T3, hPPAR gamma (Homo sapiens, UniProt P37231); settings: read-out: EC50 μM HPPARγ
T3 construct: expressed in transfected cells; host or cells: CV-1 cells
T3 sequence (P37231 238-503 limits assumed): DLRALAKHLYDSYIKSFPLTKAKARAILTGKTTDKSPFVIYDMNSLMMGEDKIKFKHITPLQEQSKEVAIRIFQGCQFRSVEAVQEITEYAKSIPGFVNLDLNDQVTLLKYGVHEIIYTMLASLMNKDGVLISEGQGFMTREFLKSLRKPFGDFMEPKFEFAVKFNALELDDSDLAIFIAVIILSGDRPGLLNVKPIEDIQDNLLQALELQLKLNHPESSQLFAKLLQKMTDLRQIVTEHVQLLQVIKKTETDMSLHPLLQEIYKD
From the text: Compounds were screened for functional potency in transient transfection assays in CV-1 cells for their ability to activate the PPAR subtypes (transactivation assay). A previously established chimeric receptor system was utilized to allow comparison of the relative transcriptional activity of the receptor subtypes on the same target gene and to prevent endogenous receptor activation from complicating the interpretation of results. […] The ligand binding domains for murine and human PPAR alpha, PPAR gamma, and PPAR delta were each fused to the yeast transcription factor GAL4 DNA binding domain. CV-1 cells were transiently transfected with expression vectors for the respective PPAR chimera along with a reporter construct containing five copies of the GAL4 DNA binding site driving expression of secreted placental alkaline phosphatase (SPAP) and beta-galactosidase. After 16 h, the medium was exchanged to DME medium supplemented with 10% delipidated fetal calf serum and the test compound at the appropriate concentration. After an additional 24 h, cell extracts were prepared and assayed for alkaline phosphatase and β-galactosidase activity.

Row | SMILES | EC50 [1] [µM] | EC50 [2] [µM] | EC50 [3] [µM]
1 | C=CCn1nc(-c2ccc(C(C)(C)C)cc2)cc1C(=O)NCc1ccc(OC(C)(C)C(=O)O)cc1 [Example 60, 2-({4-[({[3-[4-(1,1-dimethylethyl)phenyl]-1-(2-propen-1-yl)-1H-pyrazol-5-yl]carbonyl}amino)methyl]phenyl}oxy)-2-methylpropanoic acid] | 0.192 | 5.93 | 1.38
2 | C=CCn1nc(C(=O)NCc2ccc(OC(C)(C)C(=O)O)c(C)c2)cc1-c1ccc(C(C)(C)C)cc1 [Example 62, 2-({4-[({[5-[4-(1,1-dimethylethyl)phenyl]-1-(2-propen-1-yl)-1H-pyrazol-3-yl]carbonyl}amino)methyl]-2-methylphenyl}oxy)-2-methylpropanoic acid] | 0.032 | > 25 | 0.069
3 | CCn1nc(-c2ccc(C(C)(C)C)cc2)cc1C(=O)NCc1ccc(OC(C)(C)C(=O)O)c(OC)c1 [Example 5] | 0.301 | > 10 | 0.444
4 | C=CCc1cc(CNC(=O)c2cc(-c3ccc(C(C)(C)C)cc3)nn2C)ccc1OC(C)(C)C(=O)O [Example 3] | 0.1 | > 10 | 0.212
5 | COc1cc(CNC(=O)c2cc(-c3ccc(C(C)(C)C)cc3)nn2C)ccc1OC(C)(C)C(=O)O [Example 12, 2-{[4-{[({3-[4-(1,1-dimethylethyl)phenyl]-1-methyl-1H-prazol-5-yl}carbonyl)amino]methyl}-2-(methyloxy)phenyl]oxy}-2-methyl propanoic acid] | 1.05 | > 10 | 0.432
6 | Cc1cc(CNC(=O)c2cc(-c3ccc(N4CCCC4)cc3)n(C)n2)ccc1OC(C)(C)C(=O)O [Example 20, 2-methyl-2-[(2-methyl-4-{[({1-methyl-5-[4-(1-pyrrolidinyl)phenyl]-1H-pyrazol-3-yl}carbonyl)amino]methyl}phenyl)oxy]propanoic acid] | 0.076 | 1.06 | 0.02
7 | COc1cc(CNC(=O)c2cc(-c3ccc(C(C)C)cc3)nn2C)ccc1OC(C)(C)C(=O)O [Example 10] | 2.9 | > 10 | 0.554
8 | Cc1cc(CNC(=O)c2cc(-c3ccc(N4CCCCC4)cc3)n(C)n2)ccc1OC(C)(C)C(=O)O [Example 21] | 0.01 | 1.12 | 0.005
9 | Cc1cc(CNC(=O)c2cc(-c3cccc(N4CCCCC4)c3)n(C)n2)ccc1OC(C)(C)C(=O)O [Example 40, 2-methyl-2-[(2-methyl-4-{[({1-methyl-5-[3-(1-piperidinyl)phenyl]-1H-pyrazol-3-yl}carbonyl)amino]methyl}phenyl)oxy]propanoic acid] | 0.293 | 5.59 | 0.187
10 | CCCCc1ccc(-c2cc(C(=O)NCc3ccc(OC(C)(C)C(=O)O)c(C)c3)nn2C)cc1 [Example 29, 2-((4-[({[5-(4-butylphenyl)-1-methyl-1H-pyrazol-3-yl]carbonyl}amino)methyl]-2-methylphenyl}oxy)-2-methylpropanoic acid] | 0.029 | > 25 | 0.014
11 | CCn1nc(C(=O)NCc2ccc(OC(C)(C)C(=O)O)c(C)c2)cc1-c1ccc(C(C)(C)C)cc1 [Example 13, 2-[(4-{[({5-[4-(1,1-dimethylethyl)phenyl]-1-ethyl-1H-pyrazol-3-yl}carbonyl)amino]methyl}-2-methylphenyl)oxy]-2-methylpropanoic acid] | 0.009 | > 10 | 0.011
12 | CCn1nc(-c2ccc(C(C)(C)C)cc2)cc1C(=O)NCc1ccc(OC(C)(C)C(=O)O)c(C)c1 [Example 15, 2-[(4-{[({3-[4-(1,1-dimethylethyl)phenyl]-1-ethyl-1H-pyrazol-5-yl}carbonyl)amino]methyl}-2-methylphenyl)oxy]-2-methyl propanoic acid] | 0.075 | 2.44 | 0.024
13 | Cc1cc(CNC(=O)c2cc(-c3ccc(C(C)(C)C)cc3)n(Cc3ccccc3)n2)ccc1OC(C)(C)C(=O)O [Example 50, 2-({4-[({[5-[4-(1,1-dimethylethyl)phenyl]-1-(phenylmethyl)-1H-pyrazol-3-yl]carbonyl}amino)methyl]-2-methylphenyl}oxy)-2-methylpropanoic acid] | 0.204 | > 25 | 1.7
14 | Cc1cc(CNC(=O)c2cc(-c3ccc(C(C)(C)C)cc3)nn2CCN2CCOCC2)ccc1OC(C)(C)C(=O)O [Example 55, 2-[(4-{[({3-[4-(1,1-dimethylethyl)phenyl]-1-[2-(4-morpholinyl)ethyl]-1H-pyrazol-5-yl}carbonyl)amino]methyl}-2-methylphenyl)oxy]-2-methyl propanoic acid] | 0.444 | > 25 | 0.748
15 | Cc1cc(CNC(=O)Cc2cc(-c3ccc(C(C)(C)C)cc3)n(C)n2)ccc1OC(C)(C)C(=O)O [Example 44, 2-[(4-{[({5-[4-(1,1-dimethylethyl)phenyl]-1-methyl-1H-pyrazol-3-yl}acetyl)amino]methyl}-2-methylphenyl)oxy]-2-methylpropanoic acid] | 1.3 | > 25 | 0.006
16 | Cc1cc(CNC(=O)c2cc(-c3ccc(CC(C)C)cc3)nn2C)ccc1OC(C)(C)C(=O)O [Example 8, 2-methyl-2-[(2-methyl-4-{[({1-methyl-3-[4-(2-methylpropyl)phenyl]-1H-pyrazol-5-yl}carbonyl)amino]methyl}phenyl)oxy]propanoic acid] | 0.051 | 1.07 | 0.059
17 | COc1cc(CNC(=O)c2cc(-c3ccc(CC(C)C)cc3)n(C)n2)ccc1OC(C)(C)C(=O)O [Example 14] | 0.177 | > 10 | 0.13
18 | Cc1cc(CNC(=O)c2cc(Cc3ccc(C(C)(C)C)cc3)nn2C)ccc1OC(C)(C)C(=O)O [Example 46, 2-{[4-({[(3-{[4-(1,1-dimethylethyl)phenyl]methyl}-1-methyl-1H-pyrazol-5-yl)carbonyl]amino}methyl)-2-methylphenyl]oxy}-2-methylpropanoic acid] | 0.294 | > 25 | 0.353
19 | Cc1cc(CNC(=O)c2cc(-c3ccc(C(C)(C)C)cc3)nn2Cc2ccccc2)ccc1OC(C)(C)C(=O)O [Example 61, 2-({4-[({[3-[4-(1,1-dimethylethyl)phenyl]-1-(phenylmethyl)-1H-pyrazol-5-yl]carbonyl}amino)methyl]-2-methylphenyl}oxy)-2-methylpropanoic acid] | 0.115 | 2.42 | 0.147
20 | Cc1cc(CNC(=O)c2cc(-c3cccc(N4CCCCC4)c3)nn2C)ccc1OC(C)(C)C(=O)O [Example 42, 2-methyl-2-{2-methyl-4-[({[1-methyl-3-(3-piperidin-1-ylphenyl)-1H-pyrazol-5-yl]carbonyl}amino)methyl]phenoxy}propanoic acid] | 0.293 | > 25 | 1.66
